The target of series [1] is T1, Phospholipase A2, membrane associated (Homo sapiens, UniProt P14555).
T1 sequence (P14555 whole entry): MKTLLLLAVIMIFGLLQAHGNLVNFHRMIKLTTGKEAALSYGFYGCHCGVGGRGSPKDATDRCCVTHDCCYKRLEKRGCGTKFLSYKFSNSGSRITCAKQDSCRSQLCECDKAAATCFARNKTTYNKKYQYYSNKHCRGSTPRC
The series can be described thus: Inhibition of recombinant human sPLA2-2A expressed in Escherichia coli BL21(DE3) using 1-palmitoyl-2-oleoyl-sn-glycero-3-phosphocholine as substrate pretreated for 20 mins followed by substrate addition and measured after 60 mins.

The target in series [2] is T2, Group 10 secretory phospholipase A2 (Homo sapiens, UniProt O15496).
T2 sequence (O15496 whole entry): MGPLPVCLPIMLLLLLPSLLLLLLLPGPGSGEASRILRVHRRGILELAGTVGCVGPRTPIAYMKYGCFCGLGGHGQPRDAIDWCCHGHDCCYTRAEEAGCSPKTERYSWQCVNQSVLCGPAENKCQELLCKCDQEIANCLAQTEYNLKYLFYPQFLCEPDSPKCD
The experiment in a line: (§1) Inhibition of recombinant human sPLA2-10 expressed in Escherichia coli BL21(DE3) using 1-palmitoyl-2-oleoyl-sn-glycero-3-phosphocholine as substrate pretreated for 20 mins followed by substrate addition and measured after 60 mins.

The target of series [3] is T3, Phospholipase A2 group V (Homo sapiens) (UniProt P39877).
T3 sequence (whole entry): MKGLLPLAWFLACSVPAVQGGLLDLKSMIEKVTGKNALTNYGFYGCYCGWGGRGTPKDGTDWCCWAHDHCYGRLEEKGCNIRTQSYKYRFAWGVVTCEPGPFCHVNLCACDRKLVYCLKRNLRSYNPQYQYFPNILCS
The experiment in a line: Inhibition of recombinant human sPLA2-5 expressed in Escherichia coli BL21(DE3) at 30 uM using 1-palmitoyl-2-oleoyl-sn-glycero-3-phosphocholine as substrate pretreated for 20 mins followed by substrate addition and measured after 60 mins.

Series [4] has as its target T2, Group 10 secretory phospholipase A2. The series can be described thus: Inhibition of recombinant human sPLA2-10 expressed in Escherichia coli BL21(DE3) using HDL as substrate pretreated for 20 mins followed by substrate addition and measured after 60 mins.
For series [5], the target named is T4, Group 10 secretory phospholipase A2 (Homo sapiens) (UniProt O15496).
T4 sequence (whole entry): T2 sequence (O15496 whole entry)
Described as §1.

Series [6] addresses T5, Phospholipase A2 group V (Homo sapiens, UniProt P39877).
T5 sequence (P39877 whole entry): T3 sequence (whole entry)
The experiment in a line: Inhibition of recombinant human sPLA2-5 expressed in Escherichia coli BL21(DE3) using 1-palmitoyl-2-oleoyl-sn-glycero-3-phosphocholine as substrate pretreated for 20 mins followed by substrate addition and measured after 60 mins.

Series [7] deals with T6, Phospholipase A2, membrane associated (Homo sapiens) (UniProt P14555).
T6 sequence (whole entry): T1 sequence (P14555 whole entry)
The series can be described thus: Inhibition of recombinant human sPLA2-2A expressed in Escherichia coli BL21(DE3) at 30 uM using 1-palmitoyl-2-oleoyl-sn-glycero-3-phosphocholine as substrate pretreated for 20 mins followed by substrate addition and measured after 60 mins.

The target in series [8] is T7, Group 10 secretory phospholipase A2 (Mus musculus, UniProt Q9QXX3).
T7 sequence (Q9QXX3 whole entry): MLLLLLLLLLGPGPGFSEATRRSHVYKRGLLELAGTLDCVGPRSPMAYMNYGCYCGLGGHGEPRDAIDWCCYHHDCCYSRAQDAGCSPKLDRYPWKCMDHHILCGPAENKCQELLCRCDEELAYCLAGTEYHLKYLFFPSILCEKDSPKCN
The series can be described thus: Inhibition of mouse sPLA2-10 using 1-palmitoyl-2-oleoyl-sn-glycero-3-phosphocholine as substrate pretreated for 20 mins followed by substrate addition and measured after 60 mins.

Series [9] can be described thus: Clearance in Sprague-Dawley rat at 1 µmol/kg, iv by LC/MS analysis. The settings on record: in vivo.
A short description of series [10]: Clearance in Beagle dog at 1 µmol/kg, iv by LC/MS analysis. The settings on record: in vivo.
A short description of series [11]: AUC in Sprague-Dawley rat at 4 µmol/kg, po administered via gavage by LC/MS analysis. Conditions: in vivo.
Series [12] is described as follows: Volume of distribution at steady state in Beagle dog at 1 µmol/kg, iv by LC/MS analysis. Conditions: in vivo, read-out: Vdss.
The nature of series [13]: Volume of distribution at steady state in Sprague-Dawley rat at 1 µmol/kg, iv by LC/MS analysis. Conditions: in vivo, read-out: Vdss.
A short description of series [14]: Intrinsic clearance in human hepatocytes assessed per million cells at 1 uM measured after 2 to 60 mins. The class given is ADME, cell-based, Hepatocyte. Conditions: read-out: CLH.
Series [15] is described as follows: AUC in Sprague-Dawley rat at 1 µmol/kg, iv by LC/MS analysis. The settings on record: in vivo.
Series [16] is described as follows: Oral bioavailability in Sprague-Dawley rat at 4 µmol/kg administered via gavage by LC/MS analysis. The settings on record: in vivo.
The nature of series [17]: AUC in Beagle dog at 1 µmol/kg, iv by LC/MS analysis. The settings on record: in vivo.

Calls of active or inactive are those of the source. The rule behind the calls is not given here. Some results are limits rather than exact numbers.

A word on the IC50: it is the concentration needed to halve the response being measured. On to `NC(=O)c1cc2ccc(Cl)cc2n1-c1cccc(CCC(=O)O)c1`, for which the IC50 was found to be 5.7 µM in series [1], 0.09 µM in [2] and 1.1 µM in series [4]. For the same compound, in series [3], the inhibition entry is “inactive”.
As for `NC(=O)c1cccn1-c1cccc(CCC(=O)O)c1`, the inhibition entry in series [5] is “inactive”.
`NC(=O)c1cc2ccc(C3CC3)cc2n1-c1cccc(CCC(=O)O)c1`: the IC50 in [1] is 2.3 µM; in series [2], 0.16 µM; in [6], above 10 µM; in [4] it was 1.9 µM.
As for `NC(=O)c1cc2ccccc2n1-c1ccccc1`, in series [2], the IC50 was above 30 µM.
Turning to `COc1ccc2cc(C(N)=O)n(-c3cccc(CCC(=O)O)c3)c2c1`, the IC50 in [2] worked out at 0.62 µM. The inhibition result in [7] and in series [3] was “inactive” in each case.
Take `Cc1cccc2c1cc(C(N)=O)n2-c1cccc(CCC(=O)O)c1`: the IC50 in series [2] came to 0.83 µM.
On the same count and under the same terms, for `NC(=O)c1cc2ccccc2n1-c1cccc(OCC(=O)O)c1` the value was 26.9 µM; for `NC(=O)c1cc2ccccc2n1-c1cccc(C(=O)NCC(=O)O)c1`, 7.2 µM.
In the case of `Cc1ccc2cc(C(N)=O)n(-c3cccc(CCC(=O)O)c3)c2c1`, in series [2], the IC50 amounted to 0.23 µM. Besides, the inhibition entry in series [7] and in [3] was “inactive” in each case.
Broadly, the clearance is a measure of how efficiently the substance is removed, as volume per time. Lower therefore signals inefficient removal. What is called AUC is the area under the concentration-time curve, a measure of exposure. Low readings indicate low exposure, high ones high exposure. What is called bioavailability is dose-corrected exposure relative to a reference, in per cent. Take `NC(=O)c1cc2ccc(OC(F)(F)F)cc2n1-c1cccc(CCC(=O)O)c1`: the IC50 in [8] worked out at 0.096 µM; in series [1], 0.31 µM; in series [2], 0.026 µM; in series [6], 2.23 µM; in series [4], 0.27 µM. Besides, the clearance in series [9] is 0.546 L/h/kg; in series [10] it was 0.045 L/h/kg. Also, the AUC amounted to 11 µM·h in series [11], 1.84 µM·h in series [15] and 8.78 µM·h in [17]. The Vd was determined as 0.44 L/kg in [12] and 2.54 L/kg in [13]. Further, the hepatocyte CLint at 1 µM in series [14] stood at 1.7 µL/min/1e6 cells. Besides, in series [16], the bioavailability came to 100%.
Take `NC(=O)c1cc2cccnc2n1-c1cccc(CCC(=O)O)c1`: in series [5], the inhibition entry was “inactive”.
`N#Cc1ccc2cc(C(N)=O)n(-c3cccc(CCC(=O)O)c3)c2c1`: the IC50 in series [1] is 3.9 µM; in series [2] it was 0.11 µM; in series [4] it was 0.99 µM. Besides, the inhibition result in series [3] was “inactive”.
Consider `NC(=O)c1cc2ccc(OC(F)F)cc2n1-c1cccc(CCC(=O)O)c1`, for which the IC50 is 3.6 µM in series [1], 0.068 µM in [2] and 0.37 µM in [4]. For the same compound, the inhibition entry in [3] is “inactive”.
`NC(=O)c1nc2ccccn2c1-c1cccc(CCC(=O)O)c1`: in [5], the inhibition entry is “inactive”.
`Cc1cccc2cc(C(N)=O)n(-c3cccc(CCC(=O)O)c3)c12`: in series [2], the IC50 was 1.9 µM. For the same compound, the inhibition entry in series [7] and in series [3] was “inactive” each time.
For the compound `NC(=O)c1cc2ccc(F)cc2n1-c1cccc(CCC(=O)O)c1`, the IC50 in [2] came to 0.26 µM. Besides, the inhibition entry in series [7] and in series [3] was “inactive” each time.
On to `NC(=O)c1cc2ccc(CO)cc2n1-c1cccc(CCC(=O)O)c1`, for which the IC50 in series [2] turned out to be 2.8 µM. The inhibition entry in series [7] and in series [3] was “inactive” each time.
Turning to `NC(=O)c1cc2ccccc2n1-c1cccc(C(F)(F)F)c1`, the IC50 in series [2] was found to be 6.9 µM.
Same read-out and setting: for `NC(=O)CCc1cccc(-n2c(C(N)=O)cc3ccccc32)c1` the value was above 30 µM.
Take `NC(=O)c1cc2ccsc2n1-c1cccc(CCC(=O)O)c1`: the inhibition entry in series [5] was “inactive”.
As for `CCc1c(C(=O)C(N)=O)c2c(OCC(=O)O)cccc2n1Cc1ccccc1` [VARESPLADIB], in series [6], the IC50 is 0.124 µM.
As for `CS(=O)(=O)NC(=O)CCc1cccc(-n2c(C(N)=O)cc3ccccc32)c1`, the IC50 in [2] was 4.8 µM.
Turning to `NC(=O)c1cc2ccc(C(F)(F)F)cc2n1-c1cccc(CCC(=O)O)c1`, the IC50 in [1] was determined as 0.89 µM; in [2], 0.043 µM; in [6] it was 3.7 µM; in series [4], 0.48 µM.
Turning to `NC(=O)c1cc2ccccc2n1-c1cccc(CC(=O)O)c1`, the IC50 in series [2] turned out to be 10.3 µM.
For the compound `NC(=O)c1cc2sccc2n1-c1cccc(CCC(=O)O)c1`, the inhibition result in series [5] was “inactive”.
For the compound `NC(=O)c1cc2ccccc2n1-c1cccc(CCC(=O)O)c1`, the IC50 in [2] is 0.99 µM. Besides, the inhibition result in series [7] and in series [3] was “inactive” throughout.
In the case of `NC(=O)c1cc2ccccc2n1-c1cccc(C(=O)O)c1`, the IC50 in series [2] amounted to 29.1 µM.
On the same count and under the same terms, the value for `Cc1ccc2c(c1)cc(C(N)=O)n2-c1cccc(CCC(=O)O)c1` was 2.7 µM; that for `NC(=O)c1cc2ccccc2n1-c1cccc(/C=C/C(=O)O)c1` was 23.6 µM.
In the case of `NC(=O)c1cc2ccc(OCC(F)(F)F)cc2n1-c1cccc(CCC(=O)O)c1`, the IC50 in [1] is above 10 µM; in [2], 0.093 µM; in series [4], 0.74 µM. Further, in series [3], the inhibition entry is “inactive”.
As for `NC(=O)c1cc2ccccc2n1Cc1cccc(C(=O)O)c1`, the IC50 in series [2] was 20.7 µM.
Turning to `CCc1ccc2cc(C(N)=O)n(-c3cccc(CCC(=O)O)c3)c2c1`, the IC50 in series [1] turned out to be 4.4 µM; in series [2], 0.17 µM. Further, in series [3], the inhibition result was “inactive”.

The values are drawn from ChEMBL document CHEMBL4145659, “Discovery of a Series of Indole-2 Carboxamides as Selective Secreted Phospholipase A2 Type X (sPLA2-X) Inhibitors” (ACS Med Chem Lett, 2018).
